Measured values reported in patent publication US7732435B2, “Chromone derivatives useful as antagonists of VR1 receptors” (Novartis AG, priority 2005, dated 2010).
Like-named read-outs stand apart in the source and are kept apart here.

Biological target: TRPV1 receptor (UniProt Q8NER1)
Experiment: Calcium mobilisation assay in CHO-K1 cells expressing the TRPV1 receptor (inhibition of capsaicin or low pH activation)
Format: cell-based, human, rat or guinea pig
Conditions: species not specified
Protocol: Chinese Hamster Ovary-K1 (CHO-K1) cells, transfected to express either the human, rat or guinea pig TRPV1 receptor, were grown in Minimal Essential Media (MEM) alpha medium without nucleosides supplemented with fetal calf serum (10%), 2 mM L-glutamine, 100 IU/mL penicillin, 100 μg/ml streptomycin and 350-700 μg/ml geneticin. All reagents were supplied by Invitrogen. Cells were grown in T-175 flasks or Costar black, clear-bottomed 96-well view plates and maintained at 37° C. in a 90% humidified incubator with an atmosphere of 5% CO2 and 95% air. The cells were passaged twice a week at a ratio of 1:10 to 1:20 to maintain steady growth. For experimentation, cells were harvested at approximately 80% confluency and plated onto view plates at 40,000 cells per well in 100 μL media and grown overnight.
Calcium Mobilisation Assay […]

Compound `CC(C)c1oc2c(ccc3[nH]c(C(C)(F)F)nc32)c(=O)c1-c1ccc(Cl)cc1` [Example 8, 7-(4-Chlorophenyl)-2-(1,1-difluoroethyl)-8-isopropyl-3H-chromeno[7,8-d]imidazol-6-one] has an IC50 (TRPV1 stimulated by capsaicin at EC80 concentration, read-out: IC50 (capsacin)) of 68 nM and an IC50 (TRPV1 stimulated by low pH, final pH 5.5, read-out: IC50 (pH 5.5)) of 54 nM.
